Molecules are shown by their SMILES. In brackets after ≈: the same amount, converted by molar mass. Like-named read-outs stand apart in the source and are kept apart here.

The test system of one test is Ps. aeruginosa. The test is described as follows: preservative for cutting oil emulsions. Type of test: cell-based. The note with it: for MIC: Pseudomonas aeruginosa; for Minimum Inhibitory Concentration: listed as CH3, Cl, H. How it is done: Various aliquots of a 6% solution of the chemical in ethanol were added to cutting oil emulsions prepared by diluting Kutwell 30 cutting oil concentrate 1 to 30 with water. These samples were inoculated with a culture of Ps. aeruginosa and incubated at 28° on a rotary shaker. At weekly intervals the samples were examined for microorganisms and then reinoculated and incubated.

The test system of another test is Aureobasidium pullulans. The experiment in a line: preservative for latex paints. The format is cell-based. The conditions noted are these: three weeks, 27°-28°; for zone of inhibition at 0.25 % / zone of inhibition at 0.5 %: Aureobasidium pullulans, 504 h, read-out: Zone (zone of inhibition); for Surface (growth on the surface of painted square): none, medium or heavy. On the procedure:
Various quantities of the chemical were incorporated into a white exterior vinyl acetate paint. Whatman #30 filter paper was painted with one coat of paint on each side. One inch squares were cut and placed in Petri dishes on a malt agar.
The surface of both the agar and the painted squares were inoculated with a spore suspension of Aureobasidium pullulans. The plates were examined for zones of inhibition and surface growth after three weeks incubation in a humidity chamber at 27°-28°.
Various quantities of 4,5-dichloro-2-methyl-4-isothiazolin-3-thione were incorporated into a white exterior vinyl acetate paint and tested as described in Example IV.

[1] abbreviates: 168 h, read-out: Minimum Inhibitory Concentration, cutting oil emulsion, incubation 1 week, 28°.
The mark [2] stands for this setting: 336 h, read-out: Minimum Inhibitory Concentration, cutting oil emulsion, incubation 2 weeks, 28°.
[3] abbreviates: 504 h, read-out: Minimum Inhibitory Concentration, cutting oil emulsion, incubation 3 weeks, 28°.
[4] abbreviates: 672 h, read-out: Minimum Inhibitory Concentration, cutting oil emulsion, incubation 4 weeks, 28°.
The mark [5] stands for this setting: 168 h, cutting oil emulsion, incubation 1 week, 28°, read-out: Minimum Inhibitory Concentration.
The mark [6] stands for this setting: 336 h, cutting oil emulsion, incubation 2 weeks, 28°, read-out: Minimum Inhibitory Concentration.
Setting [7] is: 504 h, cutting oil emulsion, incubation 3 weeks, 28°, read-out: Minimum Inhibitory Concentration.
Where [8] appears, read: 672 h, cutting oil emulsion, incubation 4 weeks, 28°, read-out: Minimum Inhibitory Concentration.
Setting [9] is: Conc. 0.25% in vinyl acetate paint.
The mark [10] stands for this setting: Conc. 0.5% in vinyl acetate paint.

Consider `CCC[n+]1sccc1Cl` [No. 20 (Table I)], for which the MIC with Ps. aeruginosa (setting [1]) amounted to 125 µg/mL; with Ps. aeruginosa (setting [2]), 250 µg/mL; with Ps. aeruginosa (setting [3]), 250 µg/mL; in the test with Ps. aeruginosa (setting [4]), 500 µg/mL.
As to `CN1SC(C#N)=C(Cl)C1=C(C#N)C#N` [drawing 12 CH3, Cl, CN], the MIC in the test with Ps. aeruginosa (setting [5]) was 62 µg/mL (≈ 278 µM); in the test on Ps. aeruginosa (setting [6]), 250 µg/mL (≈ 1120 µM); in the test with Ps. aeruginosa (setting [7]) it was 250 µg/mL (≈ 1120 µM); with Ps. aeruginosa (setting [8]) it was 250 µg/mL (≈ 1120 µM).
Turning to `CCOC(=O)c1s[n+](C)c(Cl)c1Cl` [No. 24 (Table I), 3,4-Dichloro-2-methyl-5-ethoxycarbonylisothiazolium fluorosulfonate], the MIC was determined as 125 µg/mL in the test on Ps. aeruginosa (setting [5]), 250 µg/mL with Ps. aeruginosa (setting [6]), 250 µg/mL with Ps. aeruginosa (setting [7]) and 250 µg/mL with Ps. aeruginosa (setting [8]).
Take `Cn1sccc1=S` [No. 3 (Table VIII)]: the MIC in the test on Ps. aeruginosa (setting [1]) is 125 µg/mL (≈ 953 µM); in the test with Ps. aeruginosa (setting [2]), 250 µg/mL (≈ 1910 µM); in the test on Ps. aeruginosa (setting [3]) it was 250 µg/mL (≈ 1910 µM); in the test on Ps. aeruginosa (setting [4]), 250 µg/mL (≈ 1910 µM).
Take `CN1SC=CC1=C(C#N)C#N` [drawing 12 CH3, H, H]: the MIC in the test on Ps. aeruginosa (setting [5]) came to 250 µg/mL (≈ 1530 µM); with Ps. aeruginosa (setting [6]), 500 µg/mL (≈ 3060 µM); with Ps. aeruginosa (setting [7]), 500 µg/mL (≈ 3060 µM); in the test with Ps. aeruginosa (setting [8]), 500 µg/mL (≈ 3060 µM).
Turning to `C[n+]1sccc1Cl` [No. 13 (Table I), 3-Chloro-2-methylisothiazolium fluorosulfonate], the “Minimum Inhibitory Concentration” value with Ps. aeruginosa (cutting oil emulsion, incubation 1 week, 28°, O3SF) is 32 µg/mL; in the test on Ps. aeruginosa (cutting oil emulsion, incubation 2 weeks, 28°, O3SF) it was 32 µg/mL; in the test with Ps. aeruginosa (cutting oil emulsion, incubation 3 weeks, 28°, O3SF), 32 µg/mL; in the test on Ps. aeruginosa (cutting oil emulsion, incubation 4 weeks, 28°, O3SF), 32 µg/mL.
On to `C[n+]1sc(Cl)c(C#N)c1Cl` [No. 26 (Table I), 4-Cyano-3,5-dichloro-2-methylisothiazolium fluorosulfonate], for which the MIC was below 16 µg/mL with Ps. aeruginosa (setting [5]), 125 µg/mL in the test on Ps. aeruginosa (setting [6]), 250 µg/mL with Ps. aeruginosa (setting [7]) and 250 µg/mL in the test on Ps. aeruginosa (setting [8]). Further, the zone of inhibition at 0.25 % in the test with Aureobasidium pullulans (setting [9]) turned out to be 0 mm. For the same compound, the zone of inhibition at 0.5 % with Aureobasidium pullulans (setting [10]) turned out to be 0 mm.
With `CC[n+]1sc(Cl)c(Cl)c1Cl` [Et, Cl, Cl, Cl, O3SCF3], in the test with Aureobasidium pullulans (setting [9]), the zone of inhibition at 0.25 % was 20 mm and the “Surface (growth on the surface of painted square)” value is “None”. Moreover, in the test with Aureobasidium pullulans (setting [10]), the zone of inhibition at 0.5 % turned out to be 20 mm and the “Surface (growth on the surface of painted square)” value was “None”.
Turning to `CCn1sc(Cl)c(Cl)c1=S` [No. 2 (Table VIII)], the MIC with Ps. aeruginosa (setting [5]) was 16 µg/mL (≈ 74.7 µM); with Ps. aeruginosa (setting [6]), 32 µg/mL (≈ 149 µM); with Ps. aeruginosa (setting [7]) it was 62 µg/mL (≈ 290 µM); in the test with Ps. aeruginosa (setting [8]), 62 µg/mL (≈ 290 µM).
Turning to `CN1SC=C(Cl)C1=C(C#N)C#N` [drawing 12 CH3, Cl, H], the MIC in the test on Ps. aeruginosa (setting [5]), in the test on Ps. aeruginosa (setting [6]), in the test on Ps. aeruginosa (setting [7]) and with Ps. aeruginosa (setting [8]) was below 32 µg/mL in each case.
Consider `C[n+]1scc(Cl)c1Cl` [No. 23 (Table I)], for which the “Minimum Inhibitory Concentration” value in the test on Ps. aeruginosa (cutting oil emulsion, incubation 3 weeks, 28°, Cl, O3SOMe) was 32 µg/mL; with Ps. aeruginosa (cutting oil emulsion, incubation 4 weeks, 28°, Cl, O3SOMe), 32 µg/mL.
Consider `C[n+]1sccc1Cl` [No. 17 (Table I)], for which the “Minimum Inhibitory Concentration” value was found to be 32 µg/mL with Ps. aeruginosa (cutting oil emulsion, incubation 1 week, 28°, PF6); 32 µg/mL in the test on Ps. aeruginosa (cutting oil emulsion, incubation 2 weeks, 28°, PF6); 32 µg/mL in the test on Ps. aeruginosa (cutting oil emulsion, incubation 3 weeks, 28°, PF6); 32 µg/mL with Ps. aeruginosa (cutting oil emulsion, incubation 4 weeks, 28°, PF6).
With `C[n+]1sccc1Cl` [No. 16 (Table I)], the “Minimum Inhibitory Concentration” value worked out at 8 µg/mL in the test with Ps. aeruginosa (cutting oil emulsion, incubation 1 week, 28°, SbCl6); 16 µg/mL with Ps. aeruginosa (cutting oil emulsion, incubation 2 weeks, 28°, SbCl6); 16 µg/mL with Ps. aeruginosa (cutting oil emulsion, incubation 3 weeks, 28°, SbCl6); 16 µg/mL in the test on Ps. aeruginosa (cutting oil emulsion, incubation 4 weeks, 28°, SbCl6).
As to `CCC[n+]1sc(Cl)c(Cl)c1Cl.O=S(=O)([O-])C(F)(F)F` [No. 10 (Table I), 2-Propyl-3,4,5-trichloroisothiazolium trifluoromethane sulfonate], the MIC in the test with Ps. aeruginosa (setting [5]), in the test on Ps. aeruginosa (setting [6]), in the test with Ps. aeruginosa (setting [7]) and with Ps. aeruginosa (setting [8]) was below 32 µg/mL each time.
Turning to `CC1=C(Cl)C(=C(C#N)C#N)N(C)S1` [drawing 12 CH3, Cl, CH3], the MIC in the test on Ps. aeruginosa (setting [5]) was 250 µg/mL (≈ 1180 µM); in the test with Ps. aeruginosa (setting [6]), 500 µg/mL (≈ 2360 µM); with Ps. aeruginosa (setting [7]), 500 µg/mL (≈ 2360 µM); with Ps. aeruginosa (setting [8]), 1000 µg/mL (≈ 4720 µM).
`CC[n+]1sccc1Cl` [No. 18 (Table I), 3-Chloro-2-ethylisothiazolium ethylsulfate]: the MIC was found to be 125 µg/mL in the test with Ps. aeruginosa (setting [1]), 125 µg/mL in the test with Ps. aeruginosa (setting [2]), 125 µg/mL with Ps. aeruginosa (setting [3]) and 500 µg/mL with Ps. aeruginosa (setting [4]).
Turning to `C[n+]1sccc1Cl.O=[N+]([O-])[O-]` [No. 15 (Table I), 2-Methyl-3-chloroisothiazolium nitrate], the MIC in the test with Ps. aeruginosa (setting [1]), in the test with Ps. aeruginosa (setting [2]), in the test with Ps. aeruginosa (setting [3]) and in the test on Ps. aeruginosa (setting [4]) was 8 µg/mL in each case.
In the case of `CCN1SC=CC1=C(C#N)C#N` [drawing 12 CH2CH3, H, H], the MIC was found to be 125 µg/mL (≈ 705 µM) in the test with Ps. aeruginosa (setting [5]), 250 µg/mL (≈ 1410 µM) with Ps. aeruginosa (setting [6]), 250 µg/mL (≈ 1410 µM) in the test with Ps. aeruginosa (setting [7]) and 500 µg/mL (≈ 2820 µM) with Ps. aeruginosa (setting [8]).
In the case of `Cn1sc(C#N)c(Cl)c1=S` [No. 6 (Table VIII)], the MIC in the test with Ps. aeruginosa (setting [5]) worked out at 16 µg/mL (≈ 83.9 µM); in the test with Ps. aeruginosa (setting [6]), 125 µg/mL (≈ 656 µM); with Ps. aeruginosa (setting [7]), 250 µg/mL (≈ 1310 µM); in the test on Ps. aeruginosa (setting [8]), 250 µg/mL (≈ 1310 µM).
`C[n+]1sc(Cl)c(Cl)c1Cl.O=S(=O)([O-])C(F)(F)F` [No. 4 (Table I), 2-Methyl-3,4,5-trichloroisothiazolium trifluoromethane sulfonate]: the MIC came to 2 µg/mL in the test with Ps. aeruginosa (setting [1]), 2 µg/mL in the test on Ps. aeruginosa (setting [2]), 16 µg/mL in the test with Ps. aeruginosa (setting [3]) and 64 µg/mL with Ps. aeruginosa (setting [4]).
On to `CCOC(=O)C1=C(Cl)C(=C(C#N)C#N)N(C)S1` [drawing 12 CH3, Cl, COOEt, 4-Chloro-3-dicyanomethylene-5-ethoxycarbonyl-2-methyl-4-isothiazoline], for which the MIC in the test on Ps. aeruginosa (setting [5]), in the test on Ps. aeruginosa (setting [6]), in the test on Ps. aeruginosa (setting [7]) and in the test on Ps. aeruginosa (setting [8]) was 125 µg/mL (≈ 463 µM) throughout.
Regarding `Cc1s[n+](C)c(Cl)c1Cl` [No. 27 (Table I), 3,4-Dichloro-2,5-dimethylisothiazolium fluorosulfonate], the MIC with Ps. aeruginosa (setting [1]) was found to be 125 µg/mL; in the test with Ps. aeruginosa (setting [2]), 250 µg/mL; in the test on Ps. aeruginosa (setting [3]), 500 µg/mL; in the test on Ps. aeruginosa (setting [4]) it was 500 µg/mL.
`CCOC(=O)c1sn(C)c(=S)c1Cl` [No. 5 (Table VIII)]: the MIC was 250 µg/mL (≈ 1050 µM) in the test with Ps. aeruginosa (setting [5]), 125 µg/mL (≈ 526 µM) in the test on Ps. aeruginosa (setting [6]), 125 µg/mL (≈ 526 µM) in the test with Ps. aeruginosa (setting [7]) and 62 µg/mL (≈ 261 µM) in the test with Ps. aeruginosa (setting [8]).
As for `C[n+]1scc([N+](=O)[O-])c1Cl` [No. 28 (Table I)], the MIC in the test with Ps. aeruginosa (setting [5]) worked out at 125 µg/mL; in the test with Ps. aeruginosa (setting [6]), 500 µg/mL; in the test with Ps. aeruginosa (setting [7]), 500 µg/mL; in the test on Ps. aeruginosa (setting [8]) it was 500 µg/mL.
Regarding `Cn1scc(Cl)c1=S` [No. 4 (Table VIII)], the MIC with Ps. aeruginosa (setting [1]) was below 32 µg/mL; in the test with Ps. aeruginosa (setting [2]), 62 µg/mL (≈ 374 µM); with Ps. aeruginosa (setting [3]), 62 µg/mL (≈ 374 µM); in the test on Ps. aeruginosa (setting [4]), 62 µg/mL (≈ 374 µM).
Regarding `C[n+]1sccc1Cl` [No. 14 (Table I)], the “Minimum Inhibitory Concentration” value with Ps. aeruginosa (cutting oil emulsion, incubation 1 week, 28°, O3SOMe) is 64 µg/mL; in the test with Ps. aeruginosa (cutting oil emulsion, incubation 2 weeks, 28°, O3SOMe), 64 µg/mL; with Ps. aeruginosa (cutting oil emulsion, incubation 3 weeks, 28°, O3SOMe), 64 µg/mL; with Ps. aeruginosa (cutting oil emulsion, incubation 4 weeks, 28°, O3SOMe) it was 64 µg/mL.
As to `C[n+]1sc(C#N)c(Cl)c1Cl` [No. 25 (Table I), 5-Cyano-3,4-dichloro-2-methylisothiazolium fluorosulfonate], the MIC is below 16 µg/mL with Ps. aeruginosa (setting [5]), 125 µg/mL in the test on Ps. aeruginosa (setting [6]), 250 µg/mL in the test on Ps. aeruginosa (setting [7]) and 250 µg/mL in the test on Ps. aeruginosa (setting [8]).
In the case of `CC[n+]1sc(Cl)c(Cl)c1Cl.F[B-](F)(F)F` [No. 7 (Table I), 2-Ethyl-3,4,5-trichloroisothiazolium tetrafluoroborate], the MIC with Ps. aeruginosa (setting [5]) turned out to be 4 µg/mL; in the test on Ps. aeruginosa (setting [6]) it was 8 µg/mL; in the test with Ps. aeruginosa (setting [7]), 8 µg/mL; in the test on Ps. aeruginosa (setting [8]), 32 µg/mL.

What is called zone of inhibition is the size of the clear area around the sample on an inoculated plate.
